Experimental data taken from patent publication US20230118688A1, “1H-PYRAZOLO[4,3-d]PYRIMIDINE COMPOUNDS AS TOLL-LIKE RECEPTOR 7 (TLR7) AGONISTS” (BRISTOL-MYERS SQUIBB COMPANY, priority 2020, published 2023).

Tests used:
human TLR7 = molecular target: T1, human TLR7 (Homo sapiens, UniProt Q9NYK1); experiment: Human TLR7 agonist activity reporter assay (HEK-Blue TLR7 cells, SEAP reporter); type: cell-based; conditions: 18 h treatment, average where assay repeated, Table A1, read-out: hTLR7 Agonism EC50
T1 construct: host or cells: HEK-Blue TLR7 cells (engineered human embryonic kidney cells)
T1 sequence (Q9NYK1 27-1049): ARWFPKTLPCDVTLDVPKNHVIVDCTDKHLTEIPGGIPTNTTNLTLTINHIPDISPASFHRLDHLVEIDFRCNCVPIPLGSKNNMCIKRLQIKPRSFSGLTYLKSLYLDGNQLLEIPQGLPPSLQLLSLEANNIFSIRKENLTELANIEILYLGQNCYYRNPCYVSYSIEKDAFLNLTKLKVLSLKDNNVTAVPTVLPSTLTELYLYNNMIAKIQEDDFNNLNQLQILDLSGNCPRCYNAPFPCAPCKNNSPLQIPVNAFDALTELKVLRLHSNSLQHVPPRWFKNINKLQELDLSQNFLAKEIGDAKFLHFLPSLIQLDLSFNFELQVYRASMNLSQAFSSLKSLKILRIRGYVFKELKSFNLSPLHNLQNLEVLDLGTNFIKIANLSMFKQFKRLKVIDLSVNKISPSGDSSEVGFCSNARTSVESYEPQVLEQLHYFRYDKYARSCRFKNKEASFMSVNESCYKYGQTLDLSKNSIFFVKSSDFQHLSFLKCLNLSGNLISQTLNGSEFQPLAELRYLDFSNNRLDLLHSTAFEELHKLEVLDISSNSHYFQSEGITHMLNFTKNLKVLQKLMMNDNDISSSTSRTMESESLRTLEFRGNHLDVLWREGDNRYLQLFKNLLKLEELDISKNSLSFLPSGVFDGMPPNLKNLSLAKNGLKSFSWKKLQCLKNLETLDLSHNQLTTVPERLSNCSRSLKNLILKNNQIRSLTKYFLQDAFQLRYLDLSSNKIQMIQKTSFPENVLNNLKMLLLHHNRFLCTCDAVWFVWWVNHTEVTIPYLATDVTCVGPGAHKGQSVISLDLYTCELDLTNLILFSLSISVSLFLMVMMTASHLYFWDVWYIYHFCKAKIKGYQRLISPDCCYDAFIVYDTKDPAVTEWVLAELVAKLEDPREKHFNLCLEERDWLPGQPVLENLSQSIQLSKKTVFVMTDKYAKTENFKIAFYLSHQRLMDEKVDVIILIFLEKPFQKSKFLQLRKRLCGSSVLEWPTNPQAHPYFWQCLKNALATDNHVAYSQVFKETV
Method in brief: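 HEK-Blue TLR7 cells (15,000/well) treated with compound for 18 h at 37 °C, 5% CO2. Secreted SEAP measured with Quanti-Blue, 30 min, OD 620 nm. EC50 taken as concentration giving half-maximal response between baseline and maximum.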

CD69 = experiment: Induction of CD69 in human whole blood; type: cell-based; conditions: 17 h, CD69 surface staining, 100% set to 1 uM resiquimod, average where assay repeated, Table A1, read-out: hWB CD69 EC50
Method in brief: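 Heparinized human whole blood, RPMI-diluted, incubated with TLR7 agonist (final 1 uM from 1 mM stock) for 17 h at 37 °C. CD69-PE surface staining with CD14/CD19 gating, fix/lysis, then flow cytometry; curves normalized with 1 uM resiquimod as 100%.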

SMILES	EC50 (human TLR7)	EC50 (CD69)
CCCCNc1nc(N)nc2cnn(Cc3cc(CN(C)C(=O)CCO)ccc3OC)c12 [Compound 147, N-[(3-{[5-amino-7-(butyl-amino)-1H-pyrazolo[4,3-d]pyrimidin-1-yl]methyl}-4-methoxyphenyl)methyl]-3-hydroxy-N-methylpropanamide]	170 nM	455 nM
CCCCNc1nc(N)nc2cnn(Cc3cc(CN4CC5COCC5C4)ccc3OC)c12 (stereo not drawn) [Compound 123, N7-butyl-1-{[5-({hexa-hydro-1H-furo[3,4-c]pyrrol-5-yl}methyl)-2-methoxyphenyl]methyl}-1H-pyrazolo[4,3-d] pyrimidine-5,7-diamine]	158 nM	89.8 nM
CCCCNc1nc(N)nc2cnn(Cc3cc(CN(C)C(=O)CCN(C)C)ccc3OC)c12 [Compound 128, N-[(3-{[5-amino-7-(butyl-amino)-1H-pyrazolo[4,3-d]pyrimidin-1-yl]methyl}-4-methoxyphenyl)methyl]-3-(dimethylamino)-N-methylpropanamide]	56.2 nM	12.6 nM
CCCCNc1nc(N)nc2cnn(Cc3cc(CN4CCN(CCO)CC4)ccc3OC)c12 [Compound 127, 2-{4-[(3-{[5-amino-7-(butylamino)-1H-- pyrazolo[4,3-d]pyrimidin-1-yl]methyl}-4-methoxy-phenyl)methyl]piperazin-1-yl}ethan-1-ol]	107 nM	47.5 nM
CCCCNc1nc(N)nc2cnn(Cc3cc(CNC(=O)CN(C)C)ccc3OC)c12 [Compound 136, N-[(3-{[5-amino-7-(butyl-amino)-1H-pyrazolo[4,3-d]pyrimidin-1-yl]methyl}-4-methoxyphenyl)methyl]-2-(dimethylamino)acetamide]	51.1 nM	19.1 nM
CCCCNc1nc(N)nc2cnn(Cc3cc(CNC4COC4)ccc3OC)c12 [Compound 122, N7-butyl-1-[(2-methoxy-5-{[(oxetan-3-yl)amino]-methyl}phenyl)methyl]-1H-pyrazolo[4,3-d]pyrimidine-5,7-diamine]	548 nM	225 nM
